Like-named read-outs stand apart in the source and are kept apart here.
What was measured:
LLC cells = type: in vivo, mouse; conditions: for Tumor Inhibition Rate: LLC
Protocol: The LLC cells were cultured in DMEM medium containing […] high-quality fetal bovine serum, in a cell incubator with […] CO2 at 37° C.
The LLC cells (tumor source) in the logarithmic growth phase were collected, and 0.1 mL of cell suspension (containing approximately 1×10^6 cells) was inoculated subcutaneously into the axillary region of the corresponding C57/BL/6 mice.
(§1) On day 1 after tumor cell inoculation, all mice were randomly grouped before drug administration.
(§2) Dosing was performed according to the design of the pharmacological study protocol.
On day 7 and day 9 after tumor cell inoculation, the length (a) and width (b) of the tumor in each group of animals were measured externally. The tumor volume was estimated using the formula: V=0.52×a×b^2.
On day 10 after tumor cell inoculation, the experiment was terminated, and tumors were excised and weighed from each group of animals.
Statistical analysis and tumor inhibition rate calculation were performed as follows: Data were statistically analyzed using GraphPad Prism software. The tumor inhibition rate was calculated based on tumor size or tumor weight using the following formula: Tumor Inhibition Rate (%)=[(Average tumor volume or tumor weight of control group−Average tumor volume or tumor weight of treatment group)/Average tumor volume or tumor weight of control group]×[…].

[1] = tested on: Mouse Lewis lung carcinoma (LLC) cells; test: Anti-tumor efficacy of PGc alone and with anti-mouse PD-1, LLC tumor in C57BL/6 mice (Example 6); type: in vivo
Protocol: The LLC cells were cultured in DMEM medium containing 10% high-quality fetal bovine serum (FBS) and maintained in a cell incubator with 5% CO2 at 37° C.
The LLC cells (tumor source) in the logarithmic growth phase were collected, and 0.1 mL of cell suspension (approximately 1×10^6 cells) was inoculated subcutaneously into the axillary region of the corresponding mice.
as §1, §2
On day 10 after tumor cell inoculation, the experiment was terminated, and tumors in each group of animals were excised and weighed.
Statistical Analysis and Tumor Inhibition Rate Calculation was as follows: Data were statistically analyzed using GraphPad Prism software.

SMILES: O=P1(N(CCCl)CCCl)NCCCO1 (centres unmarked) [Cyclophosphamide (CTX), Cyclophosphamide]
- Tumor Volume (mm^3) X (LLC cells; LLC s.c. in C57/BL/6 mice, day 7 after tumor cell inoculation, group mean): 80.40 mm^3
- Tumor Volume (mm^3) X (LLC cells; LLC s.c. in C57/BL/6 mice, day 9 after tumor cell inoculation, group mean): 112.89 mm^3
- Tumor Weight (g) X (LLC cells; LLC s.c. in C57/BL/6 mice, day 10 after tumor cell inoculation, group mean): 0.13 g
- Tumor Inhibition Rate (LLC cells; day 7 after tumor cell inoculation, from tumor volume vs NS): 33%
- Tumor Inhibition Rate (LLC cells; day 9 after tumor cell inoculation, from tumor volume vs NS): 47%
- Tumor Inhibition Rate (LLC cells; day 10 after tumor cell inoculation, from tumor weight vs NS): 45%
- Tumor Weight (g) X ± SD ([1]; LLC s.c. in C57BL/6 mice, tumors excised at termination (day 8 in protocol table, day 10 in text)): 0.03 ± 0.02 g
- Tumor Inhibition Rate ([1]; LLC, from tumor weight vs NS): 42.80%

Reference: patent US20260048111A1, “Pharmaceutical Composition, Preparation Method and Use Thereof” (PuGong Biotech (Hangzhou) Co., Ltd., priority 2023, published 2026)
